# Read-outs that look alike come from different tables or passages of the source.
# What was measured:
# [1] = test system: MSNs; assay: IPSCs in MSNs during photostimulation of ChR2-expressing ChAT neurons in acute NAc slices; format: cell-based, mice
# Description: Coronal cerebral brain slices were prepared from adult mice with virus previously injected (>2 weeks prior to slicing), using standard techniques in strict accordance with a protocol approved by the Animal Care and Use Committee at Stanford University. Coronal slices 250 μm thick were cut with a vibratome using a sapphire blade in ice cold N-methyl-D-glucamine (NMDG)-based cutting solution containing 135 mM NMDG, 1 mM KCl, 1.2 mM KH2PO4, 20 mM choline bicarbonate, 10 mM glucose, 1.5 mM MgCl2 and 0.5 mM CaCl2. Slices were maintained thereafter in artificial cerebral spinal fluid (ACSF) containing 119 mM NaCl, 2.5 mM KCl, 2.5 mM CaCl2, 1.3 mM MgCl2, 1 mM NaH2PO4, 26.2 mM NaHCO3 and 11 mM glucose. Slices were maintained in ACSF at 37° C. for 30 minutes, and thereafter at room temperature. ACSF was bubbled constantly with 95% O2/5% CO2 and heated to 34° C. for all experiments. Neurons were visualized on an upright microscope (Leica DM-LFSA) equipped with both DIC optics and a filter set for visualizing eYFP using a ×40 water-immersion objective and a charge-coupled device (CCD) camera. Whole-cell recordings were made from neurons using the electrode solution containing 120 mM potassium gluconate, 20 mM HEPES, 10 mM EGTA, 1 mM MgCl2, 2 mM Na-ATP, and 0.2 mM Na-GTP (pH 7.3, 290 mOsm/L); in experiments recording IPSCs, KCl was used to replace potassium gluconate. Pipette resistances were 3-5 MΩ, and recordings were made without series resistance compensation. Membrane potentials have been corrected for the error resulting from the liquid junction potentials. The holding potential (VM) for voltage-clamp experiments was −70 mV. […] […] Photocurrents were evoked using an optical switch with a 300W xenon lamp and either a 470±20 nm or a 580±20 nm bandpass filters; light power at the specimen was 11.52 mW mm^−2 (470 nm) or 10.64 mW mm^−2 (580 nm). Currents filtered at 2 kHz, digitized at 50 kHz, and recorded to disk using pClamp10 software (Axon Instruments).
# [2] = test system: ChAT interneurons of the NAc; assay: Conditioned place preference (CPP); format: in vivo, mice
# [3] = test system: ChAT neurons; assay: Cocaine response of ChAT cells in slice (spontaneous firing); format: cell-based, mice; conditions: 5 μM cocaine bath, at 10 min; baseline 0.60±0.41 Hz; n=7
# Description: Coronal cerebral brain slices were prepared from adult mice with virus previously injected (>2 weeks prior to slicing), using standard techniques in strict accordance with a protocol approved by the Animal Care and Use Committee at Stanford University. Coronal slices 250 μm thick were cut with a vibratome using a sapphire blade in ice cold N-methyl-D-glucamine (NMDG)-based cutting solution containing 135 mM NMDG, 1 mM KCl, 1.2 mM KH2PO4, 20 mM choline bicarbonate, 10 mM glucose, 1.5 mM MgCl2 and 0.5 mM CaCl2. Slices were maintained thereafter in artificial cerebral spinal fluid (ACSF) containing 119 mM NaCl, 2.5 mM KCl, 2.5 mM CaCl2, 1.3 mM MgCl2, 1 mM NaH2PO4, 26.2 mM NaHCO3 and 11 mM glucose. Slices were maintained in ACSF at 37° C. for 30 minutes, and thereafter at room temperature. ACSF was bubbled constantly with 95% O2/5% CO2 and heated to 34° C. for all experiments. Neurons were visualized on an upright microscope (Leica DM-LFSA) equipped with both DIC optics and a filter set for visualizing eYFP using a ×40 water-immersion objective and a charge-coupled device (CCD) camera. […] Currents filtered at 2 kHz, digitized at 50 kHz, and recorded to disk using pClamp10 software (Axon Instruments).
# [4] = after 15 minutes, cited from earlier work
# [5] = Wavelength sensitivity of identified opsins (Tables 1 and 2); conditions: Table 1, opsins for inhibition
molecule,measurement,setting,value
Br.COc1ccc(-c2ccc(=N)n(CCCC(=O)O)n2)cc1 [SR-95531],effect on light-evoked synaptic currents in MSN,"[1]; SR-95531 (5 mM), NBQX and RS-CPP present",blocked
"COC(=O)[C@H]1[C@@H](OC(=O)c2ccccc2)C[C@@H]2CC[C@H]1N2C [cocaine, benzoylmethylecgonine]","Conditioned side (min), total time on cocaine-paired side on testing day","[2]; ChAT::Cre+ (eNphR3.0 inhibition paired with cocaine), 10 mg/kg",10.3 min
same,"Conditioned side (min), total time on cocaine-paired side on testing day","[2]; ChAT::Cre+ (eNphR3.0 inhibition paired with cocaine), 20 mg/kg",10.7 min
same,"Conditioned side (min), total time on cocaine-paired side on testing day","[2]; ChAT::Cre+ (eNphR3.0 inhibition paired with cocaine), 40 mg/kg",10.5 min
same,"Conditioned side (min), total time on cocaine-paired side on testing day","[2]; ChAT::Cre− control littermates, 10 mg/kg",8.5 min
same,"Conditioned side (min), total time on cocaine-paired side on testing day","[2]; ChAT::Cre− control littermates, 20 mg/kg",14.2 min
same,"Conditioned side (min), total time on cocaine-paired side on testing day","[2]; ChAT::Cre− control littermates, 40 mg/kg",9.2 min
same,firing rate of ChAT neurons after cocaine,[3],1.74±0.56 Hz
same,cocaine in the brain,[4]; i.p. 10 mg/kg,4.7 µM
same,cocaine in the brain,[4]; i.p. 20 mg/kg,9.4 µM
CNC1(C)C2CCC(C2)C1(C)C (centres unmarked) [mecamylamine],IPSC frequency with light and mecamylamine,"[1]; 10 μM mecamylamine, light alone raised 3.4+/−1.3 Hz to 10.1+/−1.2 Hz, 470 nm, 10 Hz",5.1+/−1.8 Hz
same,effect on light-evoked increase of IPSC frequency,"[1]; n=5, P<0.05",attenuated
"NpHR: halorhodopsin from Natronomonas pharaonis (protein, UniProt P15647 1-291, looked up) Halorhodopsin: MTETLPPVTESAVALQAEVTQRELFEFVLNDPLLASSLYINIALAGLSILLFVFMTRGLDDPRAKLIAVSTILVPVVSIASYTGLASGLTISVLEMPAGHFAEGSSVMLGGEEVDGVVTMWGRYLTWALSTPMILLALGLLAGSNATKLFTAITFDIAMCVTGLAAALTTSSHLMRWFWYAISCACFLVVLYILLVEWAQDAKAAGTADMFNTLKLLTVVMWLGYPIVWALGVEGIAVLPVGVTSWGYSFLDIVAKYIFAFLLLNYLTSNESVVSGSILDVPSASGTPADD",Wavelength Sensitivity (max),[5],589 nm max
"BR: opsin for inhibition, biological origin Halobacterium helobium (protein, UniProt P02945 14-262, looked up) Bacteriorhodopsin: QAQITGRPEWIWLALGTALMGLGTLYFLVKGMGVSDPDAKKFYAITTLVPAIAFTMYLSMLLGYGLTMVPFGGEQNPIYWARYADWLFTTPLLLLDLALLVDADQGTILALVGADGIMIGTGLVGALTKVYSYRFVWWAISTAAMLYILYVLFFGFTSKAESMRPEVASTFKVLRNVTVVLWSAYPVVWLIGSEGAGIVPLNIETLLFMVLDVSAKVGFGLILLRSRAIFGEAEAPEPSAGDGAAATSD",Wavelength Sensitivity (max),[5],570 nm max

# From patent US9992981B2, “Optogenetic control of reward-related behaviors” (The Board of Trustees of the Leland Stanford Junior …, priority 2010, dated 2018)
